Experimental data as given in the supplement of paper PMC10307832.

Legend:
Experiment in all cases: relative viability (nuclei count vs DMSO), 5 days (fraction); higher = more cells survive
EBC-1 = system: EBC-1
Outline: (§1)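 After 5 days of treatment, lung cancer cells in 1536-well plates were fixed and stained in a single step (final 0.05% Triton X-100, 1% formaldehyde, 1 ug/ml Hoechst) and their nuclei counted on 4× images. Treatment had been applied by pin tool the day after seeding as one drug alone or as a fixed anchor-drug dose with five library-drug doses (not always all listed) in √10 steps. Relative viability is the nuclei count of treated wells divided by that of vehicle wells, and values are medians of duplicate plates.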

Calu-6 = system: Calu-6
Outline: as §1

NCI-H1299 = system: NCI-H1299
Outline: as §1

NCI-H1563 = system: NCI-H1563
Outline: as §1

NCI-H1703 = system: NCI-H1703
Outline: as §1

IA-LM = system: IA-LM
Outline: as §1

A549 = system: A549
Outline: as §1

Compound	relative viability (EBC-1; first compound 5 µM)	relative viability (EBC-1; first compound 15.81 µM)	relative viability (EBC-1; first compound 50 µM)	relative viability (EBC-1; first compound 158.11 µM)	relative viability (EBC-1; first compound 500 µM)	relative viability (Calu-6; first compound 5 µM)	relative viability (Calu-6; first compound 15.81 µM)	relative viability (Calu-6; first compound 50 µM)	relative viability (Calu-6; first compound 158.11 µM)	relative viability (Calu-6; first compound 500 µM)	relative viability (NCI-H1299; first compound 5 µM)	relative viability (NCI-H1299; first compound 15.81 µM)	relative viability (NCI-H1299; first compound 50 µM)	relative viability (NCI-H1299; first compound 158.11 µM)	relative viability (NCI-H1299; first compound 500 µM)	relative viability (NCI-H1563; first compound 5 µM)	relative viability (NCI-H1563; first compound 15.81 µM)	relative viability (NCI-H1563; first compound 50 µM)	relative viability (NCI-H1563; first compound 158.11 µM)	relative viability (NCI-H1563; first compound 500 µM)	relative viability (NCI-H1703; first compound 5 µM)	relative viability (NCI-H1703; first compound 15.81 µM)	relative viability (NCI-H1703; first compound 50 µM)	relative viability (NCI-H1703; first compound 158.11 µM)	relative viability (NCI-H1703; first compound 500 µM)	relative viability (IA-LM; first compound 5 µM)	relative viability (IA-LM; first compound 15.81 µM)	relative viability (IA-LM; first compound 50 µM)	relative viability (IA-LM; first compound 158.11 µM)	relative viability (IA-LM; first compound 500 µM)	relative viability (A549; first compound 5 µM)	relative viability (A549; first compound 15.81 µM)	relative viability (A549; first compound 50 µM)	relative viability (A549; first compound 158.11 µM)	relative viability (A549; first compound 500 µM)
O=C(O)CCCCC(CCSCc1ccccc1)SCc1ccccc1 (stereo not given) [CPI-613] + CC(C)C[C@H](NC(=O)[C@H](Cc1ccccc1)NC(=O)c1cnccn1)B(O)O [Bortezomib] (partner 0.002 µM)	0.576	0.51	0.481	0.0828	0.0663	0.945	0.887	0.879	0.241	0.0719	1.01	1.01	1.05	1.06	1.03	0.956	0.859	0.848	0.508	0.208	0.29	0.375	0.316	0.174	0.102	0.729	0.697	0.758	0.0988	0.0045	–	–	–	–	–
O=C(O)CCCCC(CCSCc1ccccc1)SCc1ccccc1 (stereo not given) [CPI-613] + CS(=O)(=O)CCNCc1ccc(-c2ccc3ncnc(Nc4ccc(OCc5cccc(F)c5)c(Cl)c4)c3c2)o1 [Lapatinib] (partner 2 µM)	0.252	0.213	0.212	0.175	0.145	1.04	1.03	0.866	0.775	0.563	0.923	0.945	0.965	0.899	0.888	1	0.886	0.998	0.427	0.103	0.943	1.11	1.1	0.452	0.274	0.694	0.802	0.665	0.269	0.208	0.933	0.967	0.787	0.348	0.249
O=C(O)CCCCC(CCSCc1ccccc1)SCc1ccccc1 (stereo not given) [CPI-613] + CS(=O)(=O)N1CCN(Cc2cc3nc(-c4cccc5[nH]ncc45)nc(N4CCOCC4)c3s2)CC1 [Pictilisib] (partner 1 µM)	0.391	0.37	0.362	0.206	0.0773	0.938	0.811	0.754	0.446	0.111	0.789	0.756	0.785	0.404	0.106	0.657	0.597	0.623	0.513	0.193	0.25	0.264	0.27	0.213	0.115	0.294	0.307	0.238	0.0746	0.0098	0.491	0.414	0.39	0.127	0.0559
